The source made the active and inactive calls. The rule behind the calls is not given here.
Assays:
Assay type in all cases: functional, cell-based
[1] = tested on: 4T1; test: Antiproliferative activity against mouse 4T1 cells assessed as reduction in cell viability after 72 hrs by MTT assay; conditions: 4T1, 72 h
[2] = tested on: MCF7; test: Antiproliferative activity against human MCF7 cells assessed as reduction in cell viability after 72 hrs by MTT assay; conditions: MCF7, 72 h
[3] = tested on: MIA PaCa-2; test: Antiproliferative activity against human MIAPaCa2 cells assessed as reduction in cell viability after 72 hrs by MTT assay; conditions: MIA PaCa-2, 72 h
[4] = tested on: WiDr; test: Antiproliferative activity against human WiDr cells assessed as reduction in cell viability after 72 hrs by MTT assay
[5] = tested on: WiDr; test: Induction of mitochondrial morphological changes in human WiDr cells assessed as fragmentation of mitochondrial networks at 100 uM after 24 hrs by mitotracker Red-CMXROS dye based epifluorescent microscopic analysis
[6] = tested on: 4T1; test: Induction of mitochondrial morphological changes in mouse 4T1 cells assessed as fragmentation of mitochondrial networks at 100 uM after 24 hrs by mitotracker Red-CMXROS dye based epifluorescent microscopic analysis
[7] = tested on: 4T1; test: Induction of mitochondrial stress in mouse 4T1 cells assessed as acute change in oxygen consumption rate by measuring reduction in ATP production at 100 uM in presence of oligomycin/FCCP/antimycin/rotenone by seahorse XFe96 analyser based assay
[8] = tested on: 4T1; test: Induction of mitochondrial membrane damage in mouse 4T1 cells assessed as increase in proton leak at 50 to 100 uM in presence of oligomycin/FCCP/antimycin/rotenone by seahorse XFe96 analyser based assay
[9] = tested on: WiDr; test: Induction of mitochondrial stress in human WiDr cells assessed as acute change in oxygen consumption rate by measuring reduction in ATP production at 50 to 100 uM in presence of oligomycin/FCCP/antimycin/rotenone by seahorse XFe96 analyser based assay
[10] = tested on: WiDr; test: Induction of mitochondrial membrane damage in human WiDr cells assessed as increase in proton leak at 50 to 100 uM in presence of oligomycin/FCCP/antimycin/rotenone by seahorse XFe96 analyser based assay
[11] = tested on: WiDr; test: Induction of mitochondrial stress in human WiDr cells assessed as reduction in maximal respiration at 50 to 100 uM in presence of oligomycin/FCCP/antimycin/rotenone by seahorse XFe96 analyser based assay
[12] = tested on: 4T1; test: Induction of mitochondrial stress in mouse 4T1 cells assessed as reduction in maximal respiration at 100 uM in presence of oligomycin/FCCP/antimycin/rotenone by seahorse XFe96 analyser based assay
[13] = tested on: WiDr; test: Induction of mitochondrial stress in human WiDr cells assessed as effect on spare respiratory capacity at 50 to 100 uM in presence of oligomycin/FCCP/antimycin/rotenone by seahorse XFe96 analyser based assay
[14] = tested on: 4T1; test: Induction of mitochondrial stress in mouse 4T1 cells assessed as effect on spare respiratory capacity at 50 to 100 uM in presence of oligomycin/FCCP/antimycin/rotenone by seahorse XFe96 analyser based assay
[15] = tested on: WiDr; test: Induction of glycolytic stress in human WiDr cells assessed as increase in glycolysis at 50 to 100 uM in presence of glucose/oligomycin and 2-deoxyglucose by seahorse XFe96 analyser based assay
[16] = tested on: 4T1; test: Induction of glycolytic stress in mouse 4T1 cells assessed as increase in glycolysis at 50 to 100 uM in presence of glucose/oligomycin and 2-deoxyglucose by seahorse XFe96 analyser based assay
[17] = tested on: WiDr; test: Induction of glycolytic stress in human WiDr cells assessed as reduction in glycolytic capacity at 100 uM in presence of glucose/oligomycin and 2-deoxyglucose by seahorse XFe96 analyser based assay
[18] = tested on: 4T1; test: Induction of glycolytic stress in mouse 4T1 cells assessed as reduction in glycolytic capacity at 50 to 100 uM in presence of glucose/oligomycin and 2-deoxyglucose by seahorse XFe96 analyser based assay
[19] = tested on: WiDr; test: Induction of glycolytic stress in human WiDr cells assessed as reduction in glycolytic reverse at 50 to 100 uM in presence of glucose/oligomycin and 2-deoxyglucose by seahorse XFe96 analyser based assay
[20] = tested on: 4T1; test: Induction of glycolytic stress in mouse 4T1 cells assessed as reduction in glycolytic reverse at 50 to 100 uM in presence of glucose/oligomycin and 2-deoxyglucose by seahorse XFe96 analyser based assay

Row | SMILES | IC50 [1] [µM] | IC50 [2] [µM] | IC50 [3] [µM] | IC50 [4] [µM] | Activity [5] | Activity [6] | Activity [7] | Activity [8] | Activity [9] | Activity [10] | Activity [11] | Activity [12] | Activity [13] | Activity [14] | Activity [15] | Activity [16] | Activity [17] | Activity [18] | Activity [19] | Activity [20]
1 | COc1ccc([P+](CCC(=O)Nc2ccc3c(c2)B(O)OC3)(c2ccc(OC)cc2)c2ccc(OC)cc2)cc1 | > 100 | > 100 | > 100 | > 100 | – | – | – | – | – | – | – | – | – | – | – | – | – | – | – | –
2 | O=C(CC[P+](c1ccccc1)(c1ccccc1)C1CCCCC1)Nc1ccc2c(c1)B(O)OC2 | > 100 | > 100 | > 100 | > 100 | – | – | – | – | – | – | – | – | – | – | – | – | – | – | – | –
3 | O=C(CC[P+](c1ccc(F)cc1)(c1ccc(F)cc1)c1ccc(F)cc1)Nc1ccc2c(c1)B(O)OC2 | > 100 | > 100 | > 100 | > 100 | inactive | inactive | – | – | – | – | – | – | – | – | – | – | – | – | – | –
4 | Cc1ccc([P+](CCC(=O)Nc2ccc3c(c2)B(O)OC3)(c2ccc(C)cc2)c2ccc(C)cc2)cc1 | 50 | 46 | 44 | 24 | Active | Active | Active | Active | Active | Active | Active | inactive | inactive | inactive | Active | Active | Active | inactive | Active | Active
5 | O=C(CCBr)Nc1ccc2c(c1)B(O)OC2 | > 100 | > 100 | > 100 | > 100 | – | – | – | – | – | – | – | – | – | – | – | – | – | – | – | –
6 | O=C(CC[P+](c1ccccc1)(c1ccccc1)c1ccccc1)Nc1ccc2c(c1)B(O)OC2 | > 100 | > 100 | > 100 | > 100 | inactive | inactive | – | – | – | – | – | – | – | – | – | – | – | – | – | –

— ChEMBL document CHEMBL4622913, “Synthesis and biological evaluation of arylphosphonium-benzoxaborole conjugates as novel anticancer agents” (Bioorg Med Chem Lett, 2020)
